Source: patent US20240189380A1, “COMPOSITIONS FOR INHIBITING EHP INFECTION IN SHRIMP AND RELATED METHODS” (priority 2022, published 2024)

Tested on: EHP spores
Test: In vitro inactivation of polar tube extrusion of EHP spores
Assay type: cell-based, Enterocytozoon hepatopenaei
Settings: for polar tube extrusion of EHP spores compared to DMSO control: p>0.05; for polar tube extrusion rate: Batch 1 spores (high saline culture), 2 hours at 37° C.; for % of extrusion post-incubation: Batch 2 spores (low saline culture)
Method: The mechanism of EHP infection involves extrusion of polar tube (adhesive mechanism). In an in vitro study, inactivation of polar tube extrusion of EHP spores were tested with selected active ingredients namely thymoquinone, cinnamic aldehyde, eugenol, and carvacrol. The stock solution of bioactive molecules was prepared in dimethyl sulfoxide (DMSO) and further working solution prepared with 1× sterile phosphate buffer saline (1×PBS).
EHP spores were isolated and purified from HP of infected shrimps from high saline shrimp culture system (Batch 1) and low saline shrimp culture system (Batch 2). Purified spores were then incubated with the test molecules at a desired concentration for 2 hours at 37° C. Washed spores were then induced for polar tube extrusion with alkaline agent. The extrusion of the spore polar tubes was determined under a light microscope at 100× magnification by counting the number of extruded spores from a total of 100 spores and converting the number into % of extrusion.
Statistical analysis. The One-way analysis of variance (ANOVA) and t-Test were performed to determine the significant differences at a 95% confidence interval of % polar tube extrusion between spores treated with bioactive molecules and the corresponding DMSO control. The analyses were carried out using STATGRAPHICS centurion.

SMILES | polar tube extrusion of EHP spores compared to DMSO control (100 ppm) | polar tube extrusion rate (10 ppm) [%] | polar tube extrusion rate (100 ppm) [%] | % of extrusion post-incubation (10 ppm, 2% DMSO control 86.47%) [%] | % of extrusion post-incubation (100 ppm, 20% DMSO control 88.32%) [%]
C=CCc1ccc(O)c(OC)c1 [Eugenol] | slight reduction |  |  |  | 
O=C/C=C/c1ccccc1 [Cinnamic aldehyde] | slight reduction |  |  |  | 
CC1=CC(=O)C(C(C)C)=CC1=O [Thymoquinone] |  | 43.92 | 6.34 | 40.31 | 0.31
Cc1ccc(C(C)C)cc1O [Carvacrol] | slight reduction |  |  |  | 
